Key:
bile secretion [1] = experiment: Bile secretion test in rats; type: in vivo, male Wistar rats; settings: rat, oral, volume in 1 h before administration = 100%
Description: Male Wistar rats weighing 200-210 g were fasted overnight and laparotomized under urethane anesthesia(Subcutaneous injection at a dose of 1.5 g/kg). A polyethylene tube was inserted into the common bile duct. The bile was collected for one hour from 30 minutes after the operation. Subsequently, the animals were given orally the test drugs, each 50 mg of which was suspended in 1 ml of 5% gum arabic aqueous solution. The bile was collected for 5 hours after the drug administration. The volume of the bile secreted at hourly intervals after the drug administration was expressed in %, defining the volume secreted for one hour before the drug administration as 100%, as shown in Table 1.
About 500 mg of p-menth-1-ene-8,9-diol were weighed accurately, and suspended in 10 ml of 5% gum arabic aqueous solution. […] Male rats of Wistar strain weighing 200 g were fasted overnight, anesthetized by subcutanous injection of 0.3 g of urethane and laparotomized. A polyethylene tube was inserted into the common bile duct. The bile was collected for one hour from 30 minutes after the operation. […]
About 500 mg of 9-acetoxy-p-menth-1-en-8-ol was weighed accurately and suspended in 10ml of 5% gum arabic aqueous solution. […] Male rats of Wistar strain weighing about 210 g were fasted overnight and anesthetized by subcutaneous injection of 0.32 g of urethane and then laparotomized. A polyethylene tube was inserted into the common bile duct, and the bile secreted through the duct was collected for one hour from 30 minutes after the operation. Subsequently, the choleretic of the present invention was administered orally in a volume of 1.05 ml (250 mg/kg).

bile secretion [2] = experiment: Bile secretion test in dogs; type: in vivo, male mongrel dogs; settings: into duodenum, 330 mg/kg; for Bile volume secreted after administration: dog, volume in 1 h before administration = 100%; for Volume of bile secreted relative to one hour before administration: one dog (7.6 kg)
Description: Male mongrel dogs weighing approximately 8 kg were anesthetized with intravenous injection of […] of pentobarbital and further with subcutaneous injection of urethane at a dose of 1.0 g/kg and laparotomized. One canula was inserted into the common bile duct and directed to the liver for collection of the bile, and the other canula was inserted into the duodenum for the drug administration. The cholecystic duct was ligated and the gallbladder bile was aspirated with an injection syringe. The operation was finished by suture of the peritoneum. The bile was collected for one hour from 30 minutes after the operation. The animals were given the test drugs, each 50 mg of which was suspended in 1 ml of 5% gum arabic aqueous solution, through the canula for the drug administration. The bile was collected at hourly intervals for 6 hours after the drug administration. Defining the volume of the bile secreted for one hour before the drug administration as 100%, the volume secreted at hourly intervals after the drug administration was expressed in %, as shown in Table 2.
The mean volume secreted for one hour before the drug administration was 1798 μl.
This suspension was used as a choleretic of the present invention. A male mongrel dog weighing 8.8 kg was fasted overnight and anesthetized by subcutaneous injection of 1.0 mg/kg of urethane and laparotomized. One canula was inserted into the common bile duct and directed to the liver for collection of the bile, and the other canula was also inserted into the duodenum for the drug administration. Subsequently, the cholecystic duct was ligated and the gallbladder bile was aspirated with an injection syringe. The operation was finished after suturing the peritoneum. The bile was collected for one hour from 30 minutes after the operation, and subsequently, 44 ml of the test drug prepared above (250 mg/kg) was given through the canula for the drug administration. The volume of the bile secreted for the first, second and third one hour after the drug administration were 2.2, 2.1 and 1.9 times larger, respectively, than that secreted for one hour before the drug administration.
About 2.5 g of 9-propionyloxy-p-menth-1-en-8-ol was weighed accurately and suspended in 50 ml of 5% gum arabic aqueous solution. This suspension was used as a choleretic of the present invention. A male mongrel dog weighing 7.6 kg was fasted overnight and anesthetized by subcutaneous injection of 1.0 mg/kg of urethane and then laparotomized. One canula was inserted into the common bile duct and directed to the liver for collection of the bile, and the other canula into the duodenum for the drug administration. Subsequently, the cholecystic duct was ligated and the gallbladder bile was aspirated with an injection syringe. The operation was finished by suturing the peritoneum. The bile was collected for one hour from 30 minutes after the operation, and 50 ml (330 mg/kg) of the test drug prepared above was administered through the canula for the drug administration. The volume of the bile secreted for the first, second and third one hour after the drug administration was 3.2, 5.0 and 4.7 times larger, respectively, than that secreted for one hour before the drug administration.

[3] = Acute toxicity test in mice; settings: mouse, in vivo, oral, parentheses: 95% confidence limit
Description: The test drugs were suspended in 5% gum arabic aqueous solution to make 50 mg/ml, and given orally male mice of ddY strain weighing 18-22 g and male rats of Wistar strain weighing 95-120 g. The LD50 values were calculated from the mortality of the animals that ensued during the 72 hours following the drug administration

Compound: CCC(=O)OCC(C)(O)C1CC=C(C)CC1 (stereo not shown) [9-Propionyloxy-p-menth-1-en-8-ol, 9-propionyloxy-p-menth-1-en-8-ol]
- Bile volume secreted after administration (bile secretion [1]; 110 mg/kg, 0-1 hr): 135%
- Bile volume secreted after administration (bile secretion [1]; 110 mg/kg, 1-2 hr): 117%
- Bile volume secreted after administration (bile secretion [1]; 110 mg/kg, 2-3 hr): 100%
- Bile volume secreted after administration (bile secretion [1]; 110 mg/kg, 3-4 hr): 87%
- Bile volume secreted after administration (bile secretion [1]; 110 mg/kg, 4-5 hr): 74%
- Bile volume secreted after administration (bile secretion [1]; 330 mg/kg, 0-1 hr): 147%
- Bile volume secreted after administration (bile secretion [1]; 330 mg/kg, 1-2 hr): 139%
- Bile volume secreted after administration (bile secretion [1]; 330 mg/kg, 2-3 hr): 118%
- Bile volume secreted after administration (bile secretion [1]; 330 mg/kg, 3-4 hr): 104%
- Bile volume secreted after administration (bile secretion [1]; 330 mg/kg, 4-5 hr): 86%
- Bile volume secreted after administration (bile secretion [1]; 990 mg/kg, 0-1 hr): 176%
- Bile volume secreted after administration (bile secretion [1]; 990 mg/kg, 1-2 hr): 174%
- Bile volume secreted after administration (bile secretion [1]; 990 mg/kg, 2-3 hr): 153%
- Bile volume secreted after administration (bile secretion [1]; 990 mg/kg, 3-4 hr): 130%
- Bile volume secreted after administration (bile secretion [1]; 990 mg/kg, 4-5 hr): 120%
- Bile volume secreted after administration (bile secretion [2]; 0-1 hr): 322%
- Bile volume secreted after administration (bile secretion [2]; 1-2 hr): 497%
- Bile volume secreted after administration (bile secretion [2]; 2-3 hr): 472%
- Bile volume secreted after administration (bile secretion [2]; 3-4 hr): 402%
- Bile volume secreted after administration (bile secretion [2]; 4-5 hr): 367%
- Bile volume secreted after administration (bile secretion [2]; 5-6 hr): 324%
- Volume of bile secreted relative to one hour before administration (bile secretion [2]; first hour): 3.2 times
- Volume of bile secreted relative to one hour before administration (bile secretion [2]; second hour): 5.0 times
- Volume of bile secreted relative to one hour before administration (bile secretion [2]; third hour): 4.7 times
- LD50 at 72 h [3]: > 4000 mg/kg

Source: patent US4083994A, “Choleretics” (Hisamitsu Pharmaceutical Co., Inc., priority 1975, dated 1978)
